# Measured values: article PMC11239830, “Synthetic macrolides overcoming MLSBK-resistant pathogens” (Cell Discovery, 2024)
# Read-outs that look alike come from different tables or passages of the source.
# Tests used:
# [1] = tested on: S. aureus; experiment: Time-kill kinetics assay; assay type: cell-based, Staphylococcus aureus
# Procedure: To further determine the bactericidal activity of MCX-219, a time-kill assay was performed according to the method described previously. The S. aureus cultured overnight was diluted 10^4 times with CAMHB broth and incubated for 2 h. […] The number of colonies was measured at 0 h, 1 h, 3 h, 6 h, 9 h and 24 h. A flask containing bacteria left unexposed to antibiotic was used as blank control, and telithromycin was used as the positive drug (comparator drug).
# [2] = CCK-8 assay for cytotoxicity; assay type: cell-based, human
# Procedure: (§1) HepG2 cells (6 × 10^3) and HEK293T cells (4 × 10^3) were seeded into 96-well plates in 90 μL of DMEM medium containing 10% FBS per well. All test compounds were formulated as 10 mM stock solutions in DMSO (final concentration ≤ 0.5%). After overnight incubation, the test compound stock solution was diluted with DMEM medium containing 10% FBS to every target concentration, and 10 μL of each was added to each well. Three parallel experiments were set up for each compound. After incubation for 48 h, 10 μL of cell counting kit-8 (CCK-8) reagent was added to each well in sequence according to the manufacturer’s instructions. After incubating in a 37 °C incubator for 1–2 h, the absorbance was measured at a wavelength of 450 nm, and detected by ThermoScientific Multiskan FC (ThermoFisher Scientific, USA). This experiment was independently repeated three times. The data were processed by GraphPad Prism.
# [3] = tested on: HepG2 cells; experiment: CCK-8 assay for cytotoxicity; assay type: cell-based, human; details: for cytotoxicity at 5 μM: HepG2, 5 μM, 48 h
# Procedure: as §1
# [4] = tested on: S. aureus; experiment: MICs and MBCs against selected S. aureus isolates; assay type: cell-based, Staphylococcus aureus
# [5] = tested on: human ribosome (HEK293F whole-cell lysate); experiment: Mammalian cell-free in vitro translation assay; assay type: biochemical; details: human ribosomes, read-out: IC50, translation of Fluc mRNA
# Procedure: For the in vitro translation assay, the whole-cell extract was derived from cultured HEK293F cells. The translation reactions were conducted in a total volume of 10 μL, comprising 4 μL of the HEK293F extract, 1 μL 10× Translation Buffer containing 160 mM HEPESs-KOH (pH 7.6), 100 mM Creatine phosphate, 1 mM Spermidine, 10 mM ATP, 1 mM GTP, 20 mM DTT, 800 ng/μL CKM, 600 mM KOAc, 30 mM Mg(OAc)2 and 200 μM Amino acids. The reaction mixture also included 2 U of RiboLock RNase inhibitor (ThermoFisher Scientific), 0.5 mM D-luciferin (Promega), 1 μL of either antibiotic solution or solvent (water or 10% DMSO), as specified, and 100 ng mRNA (added as a 1 μL water solution after pre-incubation of the reaction mixture with antibiotic for 5 min at 30 °C). Following the addition of mRNA, the mixtures were transferred to a pre-heated 96-well CELL CULTER PLATE (WHB), sealed with a PCR plate seal, and incubated in the CLARIOstar plate reader (BMG Labtech) at 37 °C with continuous luciferase activity measurement, following established procedures[66],[67]. Luciferase activity values were determined based on light intensities at 60 min.
# [6] = In vivo pharmacokinetic study; parameters: species or system SD rats; details: SD (Sprague-Dawley), rat, iv, plasma
# Procedure: The SD rats were fasted overnight and dosed i.v. at a dose of 5 mg/kg in a solution of DMSO/PEG 400/water (5%/24%/71%). The whole blood was collected into tubes containing sodium heparin at 0.083 h, 0.25 h, 0.5 h, 1 h, 2 h, 4 h, 8 h and 24 h after dosing. After centrifugation of 6000 rpm for 10 min at 4 °C, plasma samples were transferred into 1.5 mL tubes and stored at –20 °C. Prior to analysis, the samples were thawed on ice. An amount of 50 μL of each plasma sample was added to a mixture of 50 μL of propranolol (300 ng/mL) and 100 μL of acetonitrile and centrifuged at 12,000 rpm at 4 °C for 10 min. The supernatant was diluted and analyzed by LC-MS/MS. The liquid chromatography was conducted on a Thermo Scientific Q Exactive HF-X (ThermoFisher Scientific, USA) instrument, employing an ACQUITY UPLC BEH C18 Column with dimensions of 130 Å, 1.7 µm, 2.1 mm × 100 mm. The liquid phase method employed gradient elution with mobile phases consisting of acetonitrile and an 0.1% aqueous formic acid solution. Mass spectrometry was conducted in positive ion mode. The quantification of drug concentration in plasma samples was performed using the internal standard method, and the obtained pharmacokinetic parameters were calculated using Phoenix WinNonlin software.
# [7] = tested on: H. influenzae; experiment: MIC, broth microdilution; assay type: cell-based, Haemophilus influenzae
# How it was run: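 Read-out is the lowest concentration without observed growth after 16–20 h at 37 °C, using the CLSI broth microdilution method.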
# [8] = human, HepG2 cells, HepG2 cell viability, 48 h, read-out: CC50
# [9] = Staphylococcus aureus, ATCC29213, S. aureus ATCC29213 (Table S10), read-out: MIC
# [10] = Staphylococcus aureus, MRSA, strain 1, MRSA, i-ermA
# [11] = Staphylococcus aureus, MRSA, strain 4, MRSA, i-ermA
# [12] = Staphylococcus aureus, MRSA, strain 5, MRSA, i-ermC
# [13] = Staphylococcus aureus, MRSA, strain 6, MRSA, c-ermB
# [14] = Staphylococcus aureus, MRSA, strain 7, MRSA, c-ermB
# [15] = Staphylococcus aureus, MRSA, strain 10, MRSA, c-ermB
# [16] = Staphylococcus aureus, MRSA, strain 11, MRSA, c-ermB
# [17] = Staphylococcus aureus, MSSA, strain 2, MSSA, i-ermC, read-out: MIC
# [18] = Staphylococcus aureus, MSSA, strain 3, MSSA, i-ermC, read-out: MIC
# [19] = Staphylococcus aureus, MSSA, strain 8, MSSA, c-ermB
# [20] = Staphylococcus aureus, S. aureus ATCC29213, read-out: MBC
# [21] = Staphylococcus aureus, strain 3, MSSA, i-ermC, read-out: MBC
# [22] = Haemophilus influenzae, ATCC49247, H. influenzae ATCC49247, Azi-S, read-out: MIC
structure (smiles),measurement,setting,value
CC[C@H]1OC(=O)[C@H](C)[C@@H](OC(=O)NCCCCCCC#Cc2ccc3c(=O)c(C(=O)O)cn(C)c3c2)[C@H](C)[C@@H](O[C@@H]2O[C@H](C)C[C@H](N(C)C)[C@H]2O)[C@](C)(OC)C[C@@H](C)C(=O)[C@H](C)[C@H]2NC(=O)O[C@@]21C [MCX-219],time-kill kinetics,[1]; constitutively erm-modified S. aureus 15B196,bactericidal
same,time-kill kinetics,[1]; induciblely erm-modified S. aureus PU32,bacteriostatic
same,CC50 at 48 h,"[2]; human HepG2 and HEK293T cells, read-out: CC50 (cytotoxicity)",26 to 29 µM
same,CC50 at 48 h,[2]; [8],28.9 ± 2.68 µM
same,cytotoxicity at 5 μM,[3],significantly reduced cytotoxicity compared to TcmX
same,MBC/MIC,[4]; S. aureus ATCC29213,4
same,MIC,[4]; [9],0.25 µg/mL
same,MBC,[4]; [10],1 µg/mL
same,MIC,[4]; [10],0.25 µg/mL
same,MBC,[4]; [11],0.5 µg/mL
same,MIC,[4]; [11],0.12 µg/mL
same,MBC,[4]; [12],2 µg/mL
same,MIC,[4]; [12],1 µg/mL
same,MBC,[4]; [13],16 µg/mL
same,MIC,[4]; [13],2 µg/mL
same,MBC,[4]; [14],> 16 µg/mL
same,MIC,[4]; [14],2 µg/mL
same,MBC,[4]; [15],16 µg/mL
same,MIC,[4]; [15],4 µg/mL
same,MBC,[4]; [16],> 16 µg/mL
same,MIC,[4]; [16],2 µg/mL
same,MIC,[4]; [17],0.25 µg/mL
same,MIC,[4]; [18],0.25 µg/mL
same,MBC,[4]; [19],16 µg/mL
same,MIC,"[4]; Staphylococcus aureus, MSSA, strain 8, MSSA, c-ermB, read-out: MIC",4 µg/mL
same,MIC,"[4]; Staphylococcus aureus, MSSA, strain 9, MSSA, c-ermB, read-out: MIC",0.5 µg/mL
same,MBC,[4]; [20],1 µg/mL
same,MBC,[4]; [21],2 µg/mL
same,S. aureus isolates with bactericidal activity (MBC/MIC ≤ 4),[4]; selected S. aureus isolates,58.3%
same,MBC/MIC,"[4]; strain 1, MRSA, i-ermA",4
same,MBC,"[4]; strain 2, MSSA, i-ermC",2 µg/mL
same,MBC/MIC,"[4]; strain 2, MSSA, i-ermC",8
same,MBC/MIC,"[4]; strain 3, MSSA, i-ermC",8
same,MBC/MIC,"[4]; strain 4, MRSA, i-ermA",4
same,MBC/MIC,"[4]; strain 5, MRSA, i-ermC",2
same,MBC/MIC,"[4]; strain 6, MRSA, c-ermB",8
same,MBC/MIC,"[4]; strain 7, MRSA, c-ermB",> 8
same,MBC/MIC,"[4]; strain 8, MSSA, c-ermB",4
same,MBC/MIC,"[4]; strain 9, MSSA, c-ermB",4
same,MBC/MIC,"[4]; strain 10, MRSA, c-ermB",4
same,MBC/MIC,"[4]; strain 11, MRSA, c-ermB",> 8
same,IC50,[5],> 100 µM
same,Cmax,"[6]; male SD rats, i.v. 5 mg/kg",15000 ± 2810 ng/mL
same,MRT,"[6]; male SD rats, i.v. 5 mg/kg",1.13 ± 0.0139 h
same,Tmax,"[6]; male SD rats, i.v. 5 mg/kg",4.8 min
same,half-life,"[6]; male SD rats, i.v. 5 mg/kg",3.92 ± 0.117 h
same,AUC(0-inf),"[6]; male SD rats, i.v. 5 mg/kg, mean ± SD, n 3",7090 ± 1360 ng·h/mL
same,AUC(0-t),"[6]; male SD rats, i.v. 5 mg/kg, read-out: AUC0-24",7080 ± 1360 ng·h/mL
same,clearance,"[6]; male, 5 mg/kg",12.2 mL/min/kg
same,MIC,"[7]; H. influenzae ATCC49247, Azi-S, listed as 88g",4 µg/mL
same,MIC,[7]; [22],2 µg/mL
"CC[C@H]1OC(=O)[C@H](C)C(=O)[C@H](C)[C@@H](O[C@@H]2O[C@H](C)C[C@H](N(C)C)[C@H]2O)[C@](C)(OC)C[C@@H](C)C(=O)[C@H](C)[C@H]2N(CCCCn3cnc(-c4cccnc4)c3)C(=O)O[C@]12C [telithromycin, reference compound]",MIC,[4]; [9],0.12 µg/mL
same,MBC,"[4]; Staphylococcus aureus, MRSA, strain 1, MRSA, i-ermA, read-out: MBC",> 2 µg/mL
same,MIC,"[4]; Staphylococcus aureus, MRSA, strain 1, MRSA, i-ermA, read-out: MIC",0.25 µg/mL
same,MBC,"[4]; Staphylococcus aureus, MRSA, strain 4, MRSA, i-ermA, read-out: MBC",> 1 µg/mL
same,MIC,"[4]; Staphylococcus aureus, MRSA, strain 4, MRSA, i-ermA, read-out: MIC",0.12 µg/mL
same,MBC,"[4]; Staphylococcus aureus, MRSA, strain 5, MRSA, i-ermC, read-out: MBC",> 2 µg/mL
same,MIC,"[4]; Staphylococcus aureus, MRSA, strain 5, MRSA, i-ermC, read-out: MIC",0.25 µg/mL
same,MBC,"[4]; Staphylococcus aureus, MRSA, strain 6, MRSA, c-ermB, read-out: MBC",> 64 µg/mL
same,MIC,"[4]; Staphylococcus aureus, MRSA, strain 6, MRSA, c-ermB, read-out: MIC",8 µg/mL
same,MBC,"[4]; Staphylococcus aureus, MRSA, strain 7, MRSA, c-ermB, read-out: MBC",> 64 µg/mL
same,MIC,"[4]; Staphylococcus aureus, MRSA, strain 7, MRSA, c-ermB, read-out: MIC",8 µg/mL
same,MBC,"[4]; Staphylococcus aureus, MRSA, strain 10, MRSA, c-ermB, read-out: MBC",> 128 µg/mL
same,MIC,"[4]; Staphylococcus aureus, MRSA, strain 10, MRSA, c-ermB, read-out: MIC",16 µg/mL
same,MIC,[4]; [16],128 µg/mL
same,MIC,[4]; [17],0.12 µg/mL
same,MIC,[4]; [18],0.12 µg/mL
same,MIC,[4]; [19],> 256 µg/mL
same,MIC,"[4]; Staphylococcus aureus, MSSA, strain 9, MSSA, c-ermB",> 256 µg/mL
same,MBC,[4]; [20],> 1 µg/mL
same,MBC,[4]; [21],> 1 µg/mL
same,MBC,"[4]; strain 2, MSSA, i-ermC",> 1 µg/mL
same,MIC,[7]; [22],4 µg/mL
CC[C@H]1OC(=O)[C@H](C)[C@@H](OC(=O)NCCCOCCC#Cc2ccc3c(=O)c(C(=O)O)cn(C)c3c2)[C@H](C)[C@@H](O[C@@H]2O[C@H](C)C[C@H](N(C)C)[C@H]2O)[C@](C)(OC)C[C@@H](C)C(=O)[C@H](C)[C@H]2NC(=O)O[C@@]21C [MCX-190],CC50 at 48 h,[2]; [8],> 200 µM
same,cytotoxicity at 5 μM,[3],significantly reduced cytotoxicity compared to TcmX
same,CC50 (cytotoxicity),[3]; human HepG2 and HEK293T cells,essentially non-cytotoxic
same,IC50,[5],> 100 µM
